Assay results as given in paper PMC6121455, “Synthesis and Spectrum of Biological Activities of Novel N-arylcinnamamides” (International Journal of Molecular Sciences, 2018).
Converted amounts (≈) assume the structure as drawn. “And” between values parts separate entries of the source, which are not always exact repeats. Identical values can stand only once. “Also recorded” adds a separate entry of the source. Like-named read-outs stand apart in the source and are kept apart here.

Assays:
MRSA SA 630 [1] = test: In vitro antibacterial evaluation, broth dilution micro-method (MIC); format: cell-based, Staphylococcus aureus; conditions: 24 h, read-out: MIC MRSA SA 630
MRSA SA 3202 [2] = test: as above; format: cell-based, Staphylococcus aureus; conditions: 24 h, read-out: MIC MRSA SA 3202
S. aureus ATCC 29213 = test: Dynamics of antibacterial effect (time-kill curves); format: cell-based, Staphylococcus aureus; conditions: 4× MIC, after 8 h; bactericidal = −3log decrease of CFU/mL
[3] = Lipophilicity determination by RP-HPLC (capacity factor k / log k); conditions: C18, isocratic MeOH 72%/H2O 28%
[4] = test system: Bipolaris sorokiniana (Sacc.) Shoemaker H-299; test: In vitro antifungal activity, mycelial growth (MIC); format: cell-based; conditions: B. sorokiniana mycelial growth; for MIC: Bipolaris sorokiniana
MRSA SA 3202 [5] = test: Synergy effect with clinically used drugs (fractional inhibitory concentration); format: cell-based, Staphylococcus aureus; conditions: for Separate MIC: MRSA SA 3202, each drug alone in the checkerboard plate; for Combined effect with vancomycin: additivity 0.5 < ΣFIC < 1
MRSA 63718 [6] = test: In vitro antibacterial evaluation, broth dilution micro-method (MIC); format: cell-based, Staphylococcus aureus; conditions: 24 h, read-out: MIC MRSA 63718
[7] = test system: Staphylococcus aureus ATCC 29213; test: as above; format: cell-based; conditions: read-out: MIC SA
[8] = test system: photosynthetic electron transport (PET) in spinach chloroplasts; test: Inhibition of photosynthetic electron transport (PET) in spinach chloroplasts (Hill reaction, DCPIP); format: biochemical, Spinacia oleracea L.
Method: Chloroplasts were prepared from spinach (Spinacia oleracea L.) according to Masarovicova and Kralova. The inhibition of photosynthetic electron transport (PET) in spinach chloroplasts was determined spectrophotometrically (Genesys 6, Thermo Scientific), using an artificial electron acceptor 2,6-dichlorophenol-indophenol (DCIPP) according to Kralova et al., and the rate of photosynthetic electron transport was monitored as a photoreduction of DCPIP. The measurements were carried out in phosphate buffer (0.02 mol/L, pH 7.2) containing sucrose (0.4 mol/L), MgCl2 (0.005 mol/L), and NaCl (0.015 mol/L). The chlorophyll content was 30 mg/L in these experiments, and the samples were irradiated (~100 W/m^2 with 10 cm distance) with a halogen lamp (250 W) using a 4 cm water filter to prevent warming of the samples (suspension temperature 22 °C). The studied compounds were dissolved in DMSO due to their limited water solubility.

[9] = test system: Fusarium avenaceum (Fr.) Sacc. IMI 319947; test: In vitro antifungal activity, mycelial growth (MIC); format: cell-based; conditions: F. avenaceum mycelial growth
MRSA SA 630 [10] = test: Synergy effect with clinically used drugs (fractional inhibitory concentration); format: cell-based, Staphylococcus aureus; conditions: for Separate MIC: MRSA SA 630, each drug alone in the checkerboard plate; for Combined effect with vancomycin: additivity 0.5 < ΣFIC < 1
THP-1 cells = test: In vitro antiproliferative assay (WST-1); format: cell-based, human; conditions: WST-1, 24 h, highest concentration 30 μM, read-out: Tox IC50 (antiproliferative)
Method: The activity of this enzyme directly correlates with the number of metabolically active cells in the culture. […] Human monocytic leukemia THP-1 cells were used for in vitro antiproliferative assay. […] Cells were passaged at approximately one-week intervals. […] The maximum concentration of DMSO in the assays never exceeded 0.1%. Subsequently, the cells were incubated at 37 °C with 5% CO2 for 24 h. […] The median inhibition concentration values, IC50, were deduced through the production of a dose-response curve. All data were evaluated using GraphPad Prism 5.00 software (GraphPad Software, San Diego, CA, USA).

Staphylococcus aureus = test: Pre-test subcultivation of aliquots on agar (minimal bactericidal concentration); format: cell-based
[11] = test system: S. aureus ATCC 29213 biofilm formation; test: Biofilm inhibition assay (crystal violet); format: cell-based, Staphylococcus aureus
[12] = test system: Nicotiana tabacum var. Samsun; test: In vivo toxicity against plant cells (leaf injection); conditions: water solutions 1× MIC and 4× MIC injected into leaves, checked visually for 5 weeks
Method: Nicotiana tabacum var. Samsun was used for this test [88].
Nicotiana tabacum var. Samsun was used for this test. […] As the negative control, solutions of DMSO in the same concentration were used. The positive control was 5% DMSO, which should be toxic to the plant cells. The aqueous solutions were injected into the plant leaves by a syringe (needle 27G × ¾”) to fill area approx. 1 cm^2 [88]. The test was made in triplicates in three different plants. The plants were kept in a greenhouse on direct sunlight. The effect of the compounds was visually checked every day for 5 weeks.

MRSA 63718 [13] = test: Synergy effect with clinically used drugs (fractional inhibitory concentration); format: cell-based, Staphylococcus aureus; conditions: MRSA 63718, each drug alone in the checkerboard plate
M. tuberculosis H37Ra = conditions: cited from earlier work
[14] = test system: Bipolaris sorokiniana conidium germination; test: Inhibition of Bipolaris sorokiniana conidium germination; format: cell-based; conditions: 48 h, read-out: Inhibition (%) Compared to Negative Control, conidium germination
[15] = MRSA SA 3202, synergy ΣFIC ≤ 0.5
[16] = Staphylococcus aureus, ATCC29213, 24 h

Compound | MIC (MRSA SA 630 [1]) [µM] | MIC (MRSA SA 630 [1]; Staphylococcus aureus, MRSA) | MIC (MRSA SA 3202 [2]) [µM] | MIC (MRSA SA 3202 [2]; Staphylococcus aureus, MRSA) | bactericidal effect in time-kill curve assay (S. aureus ATCC 29213) | log k [3] | MIC [4] | Separate MIC (MRSA SA 3202 [5]) | Combined effect with vancomycin (MRSA SA 3202 [5]; MRSA SA 3202) | MIC (MRSA 63718 [6]) [µM] | MIC (MRSA 63718 [6]; Staphylococcus aureus, MRSA) | MIC ([7]; S. aureus ATCC 29213, 24 h) [µM] | MIC [7, 16] | IC50 [8] [µM] | MIC ([9]; Fusarium avenaceum) | Separate MIC (MRSA SA 630 [10]) | Combined effect with vancomycin (MRSA SA 630 [10]; MRSA SA 630) | IC50 (THP-1 cells; Homo sapiens, THP-1, 24 h) [µM] | IC50 (THP-1 cells) [µM] | minimal bactericidal concentrations (Staphylococcus aureus) [× MIC] | also measured
O=C(/C=C/c1ccccc1)Nc1cc(C(F)(F)F)cc(C(F)(F)F)c1 [Compound 13, (2E)-N-[3,5-bis(Trifluoromethyl)phenyl]-3-phenylprop-2-enamide] | 22.27 (≈ 8 µg/mL) | 22.3 µM and 8 µg/mL | 22.27 (≈ 8 µg/mL) | 22.3 µM and 8 µg/mL | bactericidal | 0.981 and 0.9814 | 356 µM and 128 µg/mL | 32 µg/mL | additivity | 22.27 (≈ 8 µg/mL) | 22.3 µM and 8 µg/mL | 22.27 (≈ 8 µg/mL) | 22.3 µM and 8 µg/mL | 111 | 713 µM and 256 µg/mL | 8 µg/mL and 4 µg/mL | additivity | 22 | 22.6 ± 1.88 | ≤ 4 | Combined effect with ciprofloxacin (MRSA SA 3202 [5]; [15]): synergistic; Combined effect with tetracycline (MRSA SA 3202 [5]; [15]): synergistic; Combined effect with ciprofloxacin (MRSA SA 630 [10]; MRSA SA 630, synergy ΣFIC ≤ 0.5): synergistic
O=C(/C=C/c1ccccc1)Nc1cccc(C(F)(F)F)c1 [Compound 6, (2E)-3-Phenyl-N-[3-(trifluoromethyl)phenyl]prop-2-enamide] | 27.47 (≈ 8 µg/mL) | 27.5 µM and 8 µg/mL | 27.47 (≈ 8 µg/mL) | 27.5 µM and 8 µg/mL | very close to the bactericidal level | 0.4859 | 54.9 µM and 16 µg/mL | 16 μg/mL and 8/8 μg/mL and 8 μg/mL | additivity | 27.47 (≈ 8 µg/mL) | 27.5 µM and 8 µg/mL | 27.47 (≈ 8 µg/mL) | 27.5 µM and 8 µg/mL | 189 | 54.9 µM and 16 µg/mL | 8 µg/mL | additivity | 22 | 22.7 ± 1.73 | ≤ 4 | MIC BS [4]: 49.98 to 66.32 µM; lowest concentration which inhibited ≥80% of biofilm formation ([11]; S. aureus ATCC 29213, 48 h): 8 µg/mL; MIC [9]: 54.93 µM (≈ 16 µg/mL); in vivo toxicity against plant cells [12]: nontoxic effect; also recorded: no visible influence on the plant tissue
CN(C)[C@@H]1C(O)=C(C(N)=O)C(=O)[C@@]2(O)C(O)=C3C(=O)c4c(O)cccc4[C@@](C)(O)[C@H]3C[C@@H]12 [TET, tetracycline, reference compound] |  |  |  |  |  |  |  | 64 µg/mL |  |  |  |  |  |  |  |  |  |  |  |  | Separate MIC (MRSA 63718 [13]): 128 µg/mL
CN[C@H](CC(C)C)C(=O)N[C@H]1C(=O)N[C@@H](CC(N)=O)C(=O)N[C@H]2C(=O)N[C@H]3C(=O)N[C@H](C(=O)N[C@H](C(=O)O)c4cc(O)cc(O)c4-c4cc3ccc4O)[C@H](O)c3ccc(c(Cl)c3)Oc3cc2cc(c3O[C@@H]2O[C@H](CO)[C@@H](O)[C@H](O)[C@H]2O[C@H]2C[C@](C)(N)[C@H](O)[C@H](C)O2)Oc2ccc(cc2Cl)[C@H]1O [VAN, vancomycin, reference compound] |  |  |  |  |  |  |  | 1 µg/mL |  |  |  |  |  |  |  | 1 µg/mL |  |  |  |  | effect on biofilm formation ([11]; sub-MIC concentrations): induction of biofilm formation; Separate MIC (MRSA 63718 [13]): 2 µg/mL
O=C(Nc1cccc(C(F)(F)F)c1)c1ccc2cccc(O)c2n1 [8-hydroxy-N-(3-trifluoromethylphenyl)quinoline-2-carbox-amide] |  |  |  |  |  |  |  |  |  |  |  |  |  |  |  |  |  |  |  |  | decrease of the viability of M. tuberculosis H37Ra to (M. tuberculosis H37Ra): 18.8%
CCCCNC(=O)n1c(NC(=O)OC)nc2ccccc21 [BNM, benomyl, reference compound] |  |  |  |  |  |  | 17.2 µM and 5 µg/mL |  |  |  |  |  |  |  | 1.94 µM and 0.5 µg/mL |  |  |  |  |  | inhibition at 5 µg/mL ([14]; 5 μg/mL): 100%; inhibition at 10 µg/mL ([14]; 10 μg/mL): 100%
